Measured values from patent JP2020514407A, “アポリポプロテイン模倣物を用いる加齢黄斑変性と他の眼疾患の治療” (MacRegen Inc, priority 2017, dated 2018).

Assays:
[1] = tested on: neutral lipid in and on Bruch's membrane [ブルッフ膜内及びブルッフ膜上の中性脂質]; assay: Oil red O (ORO) staining of neutral lipid in and on Bruch's membrane, aged macaques with naturally occurring age-related maculopathy; type: in vivo, cynomolgus macaque (Macaca fascicularis); settings: injected eye; 6 monthly intravitreal injections, total 625 μg; after 6 months; vs scrambled L-4F
[2] = tested on: esterified cholesterol in Bruch's membrane [ブルッフ膜内のエステル型コレステロール]; assay: Filipin fluorescence of esterified cholesterol in Bruch's membrane, aged macaques; type: in vivo, cynomolgus macaque (Macaca fascicularis); settings: injected eye; 6 monthly intravitreal injections, total 625 μg; vs scrambled L-4F
[3] = tested on: membrane attack complex (MAC, C5b-9) [膜侵襲複合体(MAC、C5b−9)]; assay: Immunohistochemistry of membrane attack complex in Bruch's membrane and choriocapillaris, aged macaques; type: in vivo, cynomolgus macaque (Macaca fascicularis); settings: injected eye; 6 monthly intravitreal injections, total 625 μg; vs scrambled L-4F
[4] = tested on: complement factor D (CFD) [補体因子D(CFD)]; assay: Immunohistochemistry of complement factor D, aged macaques; type: in vivo, cynomolgus macaque (Macaca fascicularis); settings: injected eye; 6 monthly intravitreal injections, total 625 μg; vs scrambled L-4F
[5] = tested on: Bruch's membrane [ブルッフ膜]; assay: Bruch's membrane thickness and integrity by electron microscopy, aged macaques; type: in vivo, cynomolgus macaque (Macaca fascicularis)
[6] = tested on: fellow non-injected eye [もう片方の非注射側の眼]; assay: Effect in the fellow non-injected eye (staining and thickness, figures 2 to 6), aged macaques; type: in vivo, cynomolgus macaque (Macaca fascicularis); settings: after 6 monthly intravitreal injections (figures 2 to 6)
[7] = Tolerability and adverse events of intravitreal injection, aged macaques; type: in vivo, cynomolgus macaque (Macaca fascicularis); settings: all macaques; 6 monthly intravitreal injections
[8] = tested on: high-sensitivity C-reactive protein (hsCRP) [高感度C−反応性タンパク質(hsCRP)]; assay: Blood level of high-sensitivity C-reactive protein, aged macaques; type: in vivo, cynomolgus macaque (Macaca fascicularis); settings: 6 monthly intravitreal injections
[9] = estimated; cited from earlier work
[10] = tested on: geographic atrophy [地図状萎縮]; settings: 10 mg intravitreal once a month, 18 months, cited from earlier work

Ac−DWFKAFYDKVAEKFKEAF−NH2 (Ac-DWFKAFYDKVAEKFKEAF-NH2) [L−4F]
reduction of lipid deposits from Bruch's membrane (oil red O staining) compared with placebo-injected eyes [1]: ~56% | reduction of esterified cholesterol in Bruch's membrane (filipin fluorescence, semiquantitative) compared with placebo-injected eyes [2]: ~68% | reduction of MAC (C5b-9) level in Bruch's membrane and choriocapillaris compared with eyes injected with scrambled peptide [3]: ~58% | reduction of complement factor D level compared with eyes injected with scrambled peptide [4]: ~41% | thickness of Bruch's membrane ([5]; L-4F-injected eye, temporal outer macula, post mortem, printed 1.31μm±SE0.11, placebo (scrambled L-4F) 1.73μm±SE0.02): 1.31 μm | Bruch's membrane integrity ([5]; after removal of lipid deposits, confirmed by electron microscopy): BrMの完全性が回復し | reduction of Bruch's membrane thickness compared with placebo-injected eyes ([5]; injected eye, temporal outer macula, vs scrambled L-4F): ~24% | effect on the fellow non-injected eye relative to the injected eye [6]: 同様の効果を有していた | tolerability [7]: 十分耐性があり | change in hsCRP blood level compared with the day before the first injection [8]: hsCRPの血中レベルを増加させなかった

アフリベルセプト: soluble fusion protein comprising extracellular domains of VEGFR
intravitreal half-life [9]: ~216 h

ベバシズマブ: anti-VEGF antibody or fragment
intravitreal half-life [9]: ~235 h

ラニビズマブ: anti-VEGF antibody or fragment
intravitreal half-life [9]: ~170 h

ランパリズマブ: antigen-binding fragment (Fab) of a humanized monoclonal antibody targeting complement factor D
reduction of geographic atrophy area, CFI biomarker-positive subgroup ([10]; CFI biomarker-positive patients): ~44% | reduction of geographic atrophy area in the injected eye compared with placebo patients ([10]; one eye): ~20%
